Data from paper PMC5218480 (PLoS ONE, 2017).

Test system: MV-4-11 cells
Assay: Gene expression microarray analysis (Affymetrix PrimeView) and GSEA
Type: cell-based, human
Parameters: RFU PODN (11730768_x_at) / Fold change /veh PODN (11730768_x_at) / RFU LINC00158 (11744669_a_at) / Fold change /veh LINC00158 (11744669_a_at) / RFU DUSP10 (11751237_a_at) / Fold change /veh DUSP10 (11751237_a_at) / RFU ID3 (11757404_x_at) / Fold change /veh ID3 (11757404_x_at) / RFU PLEKHG5 (11737974_s_at) / Fold change /veh PLEKHG5 (11737974_s_at) / RFU LRRC4B (11730491_at) / Fold change /veh LRRC4B (11730491_at) / RFU GIMAP4 (11747438_a_at) / Fold change /veh GIMAP4 (11747438_a_at) / RFU KRT8 (11758183_x_at) / Fold change /veh KRT8 (11758183_x_at) / RFU CNN1 (11734310_a_at) / Fold change /veh CNN1 (11734310_a_at) / RFU VPS37D (11726825_at) / Fold change /veh VPS37D (11726825_at) / RFU C10orf10 (11716522_x_at) / Fold change /veh C10orf10 (11716522_x_at) / RFU KIR2DL2 /// KIR2DL4 /// KIR2DL5A /// KIR2DL5B /// KIR2DS1 /// KIR2DS2 /// KIR2DS3 /// KIR2DS4 /// KIR3DL3 /// KIR3DL3 /// KIR3DS1 (11738374_at) / Fold change /veh KIR2DL2 /// KIR2DL4 /// KIR2DL5A /// KIR2DL5B /// KIR2DS1 /// KIR2DS2 /// KIR2DS3 /// KIR2DS4 /// KIR3DL3 /// KIR3DL3 /// KIR3DS1 (11738374_at) / RFU C1QL1 (11718748_at) / Fold change /veh C1QL1 (11718748_at) / RFU TMPRSS4 (11747572_a_at) / Fold change /veh TMPRSS4 (11747572_a_at) / RFU HAMP (11756126_x_at) / Fold change /veh HAMP (11756126_x_at) / RFU RNFT2 (11725882_a_at) / Fold change /veh RNFT2 (11725882_a_at) / RFU NR4A2 (11747474_a_at) / Fold change /veh NR4A2 (11747474_a_at) / RFU ABCC12 (11746883_a_at) / Fold change /veh ABCC12 (11746883_a_at) / RFU TMEM136 (11760407_x_at) / Fold change /veh TMEM136 (11760407_x_at) / RFU CLDN22 /// WWC2 (11732394_at) / Fold change /veh CLDN22 /// WWC2 (11732394_at) / RFU HLA-DPB1 (11760878_x_at) / Fold change /veh HLA-DPB1 (11760878_x_at) / RFU SPINT1 (11716480_a_at) / Fold change /veh SPINT1 (11716480_a_at) / RFU GAP43 (11754022_s_at) / Fold change /veh GAP43 (11754022_s_at) / RFU A4GNT (11735810_at) / Fold change /veh A4GNT (11735810_at) / RFU PRB3 (11715151_x_at) / Fold change /veh PRB3 (11715151_x_at) / RFU TUBB4B (11761932_at) / Fold change /veh TUBB4B (11761932_at) / RFU CAPN14 (11732068_a_at) / Fold change /veh CAPN14 (11732068_a_at) / RFU TMCC2 (11721928_a_at) / Fold change /veh TMCC2 (11721928_a_at) / RFU IRGQ (11745062_a_at) / Fold change /veh IRGQ (11745062_a_at) / RFU FAM174B (11720279_a_at) / Fold change /veh FAM174B (11720279_a_at) / RFU TMPRSS4 (11748680_a_at) / Fold change /veh TMPRSS4 (11748680_a_at) / RFU FAM212B (11763350_a_at) / Fold change /veh FAM212B (11763350_a_at) / RFU PLEKHG5 (11743358_a_at) / Fold change /veh PLEKHG5 (11743358_a_at) / RFU ZSCAN30 (11745921_a_at) / Fold change /veh ZSCAN30 (11745921_a_at) / RFU CMKLR1 (11741424_a_at) / Fold change /veh CMKLR1 (11741424_a_at) / RFU LOC101060620 /// MAPK8IP1 (11723275_at) / Fold change /veh LOC101060620 /// MAPK8IP1 (11723275_at) / RFU SPTSSB (11747773_x_at) / Fold change /veh SPTSSB (11747773_x_at) / RFU PRSS12 (11739890_at) / Fold change /veh PRSS12 (11739890_at) / RFU BIN1 (11741810_x_at) / Fold change /veh BIN1 (11741810_x_at) / RFU WNT11 (11732464_a_at) / Fold change /veh WNT11 (11732464_a_at) / RFU C10orf10 (11716521_a_at) / Fold change /veh C10orf10 (11716521_a_at) / RFU C5orf56 (11738089_at) / Fold change /veh C5orf56 (11738089_at) / RFU CYB561 (11721691_x_at) / Fold change /veh CYB561 (11721691_x_at) / RFU ANKRD19P (11752326_a_at) / Fold change /veh ANKRD19P (11752326_a_at) / RFU OR2T12 /// OR2T33 /// OR2T8 (11738714_s_at) / Fold change /veh OR2T12 /// OR2T33 /// OR2T8 (11738714_s_at) / RFU VCAN (11748164_a_at) / Fold change /veh VCAN (11748164_a_at) / RFU JSRP1 (11732532_at) / Fold change /veh JSRP1 (11732532_at) / RFU KRTAP10-11 (11738290_x_at) / Fold change /veh KRTAP10-11 (11738290_x_at) / RFU MYO3A (11730013_a_at) / Fold change /veh MYO3A (11730013_a_at) / RFU EBF3 (11725865_a_at) / Fold change /veh EBF3 (11725865_a_at) / RFU CAMK2N1 (11719241_x_at) / Fold change /veh CAMK2N1 (11719241_x_at) / RFU C5orf56 (11738088_a_at) / Fold change /veh C5orf56 (11738088_a_at) / RFU OLFML3 (11715873_a_at) / Fold change /veh OLFML3 (11715873_a_at) / RFU LOC100653217 /// NTM (11731650_a_at) / Fold change /veh LOC100653217 /// NTM (11731650_a_at) / RFU MAPK11 (11762145_a_at) / Fold change /veh MAPK11 (11762145_a_at) / RFU FIZ1 (11724087_x_at) / Fold change /veh FIZ1 (11724087_x_at) / RFU OASL (11726364_x_at) / Fold change /veh OASL (11726364_x_at) / RFU SOX15 (11748057_x_at) / Fold change /veh SOX15 (11748057_x_at) / RFU CD79A (11719716_a_at) / Fold change /veh CD79A (11719716_a_at) / RFU HIST1H1D (11736915_at) / Fold change /veh HIST1H1D (11736915_at) / RFU CASKIN2 (11723855_a_at) / Fold change /veh CASKIN2 (11723855_a_at) / RFU LOC730098 (11760151_x_at) / Fold change /veh LOC730098 (11760151_x_at) / RFU OR4N2 (11742367_at) / Fold change /veh OR4N2 (11742367_at) / RFU PRRT2 (11749266_a_at) / Fold change /veh PRRT2 (11749266_a_at) / RFU SNX32 (11753110_a_at) / Fold change /veh SNX32 (11753110_a_at) / RFU CDHR5 (11726645_a_at) / Fold change /veh CDHR5 (11726645_a_at) / RFU RCAN1 (11760418_a_at) / Fold change /veh RCAN1 (11760418_a_at) / RFU FAM167A (11723789_a_at) / Fold change /veh FAM167A (11723789_a_at) / RFU FAM26E (11764081_at) / Fold change /veh FAM26E (11764081_at) / RFU ISYNA1 (11749810_s_at) / Fold change /veh ISYNA1 (11749810_s_at) / RFU ACY1 (11761880_at) / Fold change /veh ACY1 (11761880_at) / RFU 11764098_at / Fold change /veh 11764098_at / RFU SAMD14 (11745864_x_at) / Fold change /veh SAMD14 (11745864_x_at) / RFU NPB (11741838_a_at) / Fold change /veh NPB (11741838_a_at) / RFU TMPRSS6 (11731388_a_at) / Fold change /veh TMPRSS6 (11731388_a_at) / RFU KRTAP10-2 (11738614_at) / Fold change /veh KRTAP10-2 (11738614_at) / RFU ARHGAP8 /// PRR5-ARHGAP8 (11727945_x_at) / Fold change /veh ARHGAP8 /// PRR5-ARHGAP8 (11727945_x_at) / RFU KRTAP5-7 /// NADSYN1 (11734609_at) / Fold change /veh KRTAP5-7 /// NADSYN1 (11734609_at) / RFU RASL12 (11751679_a_at) / Fold change /veh RASL12 (11751679_a_at) / RFU CDKN2B (11736163_a_at) / Fold change /veh CDKN2B (11736163_a_at) / RFU PRF1 (11729649_at) / Fold change /veh PRF1 (11729649_at) / RFU, ZNF638 /// ZNF638-IT1 / Fold change vs veh, ZNF638 /// ZNF638-IT1 / RFU, PANK3 / Fold change vs veh, PANK3 / RFU, SH3YL1 / Fold change vs veh, SH3YL1 / RFU, ZEB2 / Fold change vs veh, ZEB2 / RFU, NRIP1 / Fold change vs veh, NRIP1 / RFU, PTTG1IP / Fold change vs veh, PTTG1IP / RFU, CAPN2 / Fold change vs veh, CAPN2 / RFU, MED14 / Fold change vs veh, MED14 / RFU, SNORA58 / Fold change vs veh, SNORA58 / RFU, C1orf63 / Fold change vs veh, C1orf63 / RFU, LRRFIP1 / Fold change vs veh, LRRFIP1 / RFU, NDUFAF7 / Fold change vs veh, NDUFAF7 / RFU, SLC12A2 / Fold change vs veh, SLC12A2 / RFU, IBTK / Fold change vs veh, IBTK / RFU, ESF1 / Fold change vs veh, ESF1 / Fold change vs veh, TMEM50B / RFU, TAOK1 / Fold change vs veh, TAOK1 / RFU, ACBD3 / Fold change vs veh, ACBD3 / RFU, TMA16 / Fold change vs veh, TMA16 / RFU, RWDD3 / Fold change vs veh, RWDD3 / RFU, BCAT1 / Fold change vs veh, BCAT1 / RFU, EDEM3 / Fold change vs veh, EDEM3 / RFU, TMEM33 / Fold change vs veh, TMEM33 / RFU, WDR75 / Fold change vs veh, WDR75 / RFU, AHCTF1 / Fold change vs veh, AHCTF1 / RFU, TFRC / Fold change vs veh, TFRC / RFU, ZDHHC17 / Fold change vs veh, ZDHHC17 / RFU, NOM1 / Fold change vs veh, NOM1 / RFU, ARL8B / Fold change vs veh, ARL8B / RFU, ZBTB11 / Fold change vs veh, ZBTB11 / RFU, TAMM41 / Fold change vs veh, TAMM41 / RFU, KIAA1704 /// LOC100996395 / Fold change vs veh, KIAA1704 /// LOC100996395 / RFU, ING1 / Fold change vs veh, ING1 / RFU, TRMT61B / Fold change vs veh, TRMT61B / RFU, FUBP3 / Fold change vs veh, FUBP3 / RFU, TP53 / Fold change vs veh, TP53 / RFU, TNKS2 / Fold change vs veh, TNKS2 / RFU, ZFP14 / Fold change vs veh, ZFP14 / RFU, ACTR2 / Fold change vs veh, ACTR2 / RFU, PPP3R1 / Fold change vs veh, PPP3R1 / RFU, PIK3R1 / Fold change vs veh, PIK3R1 / RFU, HNRNPA1 / Fold change vs veh, HNRNPA1 / RFU, RNF170 / Fold change vs veh, RNF170 / RFU, ZNF28 / Fold change vs veh, ZNF28 / RFU, RNGTT / Fold change vs veh, RNGTT / RFU, OGT / Fold change vs veh, OGT / RFU, BRD1 / Fold change vs veh, BRD1 / RFU, MARS / Fold change vs veh, MARS / RFU, ZNF655 / Fold change vs veh, ZNF655 / RFU, FAHD1 / Fold change vs veh, FAHD1 / RFU, BDP1 / Fold change vs veh, BDP1 / RFU, LRRCC1 / Fold change vs veh, LRRCC1 / RFU, ARID1A / Fold change vs veh, ARID1A / RFU, ZNF146 / Fold change vs veh, ZNF146 / RFU, ZNF330 / Fold change vs veh, ZNF330 / RFU, GPN3 / Fold change vs veh, GPN3 / RFU, C9orf123 / Fold change vs veh, C9orf123 / RFU, N4BP2L2 / Fold change vs veh, N4BP2L2 / RFU, ARFIP1 / Fold change vs veh, ARFIP1 / RFU, FAM179B / Fold change vs veh, FAM179B / RFU, BCL10 / Fold change vs veh, BCL10 / RFU, UHRF1BP1L / Fold change vs veh, UHRF1BP1L / RFU, BET1 / Fold change vs veh, BET1 / RFU, CNOT2 / Fold change vs veh, CNOT2 / RFU, ZNF268 / Fold change vs veh, ZNF268 / Fold change vs veh, ZNF507 / RFU, DGCR2 / Fold change vs veh, DGCR2 / RFU, WDSUB1 / Fold change vs veh, WDSUB1 / Fold change vs veh, HSP90B1 /// MIR3652 / RFU, ADSS / Fold change vs veh, ADSS / RFU, GK / Fold change vs veh, GK / RFU, ZNF148 / Fold change vs veh, ZNF148 / RFU, TAF9 / Fold change vs veh, TAF9 / RFU, SLC1A5 / Fold change vs veh, SLC1A5 / RFU, SLMO2 / Fold change vs veh, SLMO2 / RFU, ABCC4 / Fold change vs veh, ABCC4 / RFU, LOC101060439 /// RAP1B / Fold change vs veh, LOC101060439 /// RAP1B / RFU, RFX7 / Fold change vs veh, RFX7 / RFU, GTPBP10 / Fold change vs veh, GTPBP10 / RFU, CNEP1R1 / Fold change vs veh, CNEP1R1 / RFU, BIVM-ERCC5 /// ERCC5 / Fold change vs veh, BIVM-ERCC5 /// ERCC5 / RFU, ILF3 / Fold change vs veh, ILF3 / RFU 11762660_at / Fold change /veh 11762660_at / RFU VCAN (11757783_s_at) / Fold change /veh VCAN (11757783_s_at) / RFU DDX43 (11728927_at) / Fold change /veh DDX43 (11728927_at) / RFU KRT8 (11758188_x_at) / Fold change /veh KRT8 (11758188_x_at) / RFU NKD1 (11759106_at) / Fold change /veh NKD1 (11759106_at) / RFU SRD5A1 (11742802_a_at) / Fold change /veh SRD5A1 (11742802_a_at) / RFU TPSAB1 /// TPSB2 (11721975_s_at) / Fold change /veh TPSAB1 /// TPSB2 (11721975_s_at) / RFU GSTM3 (11746129_a_at) / Fold change /veh GSTM3 (11746129_a_at) / RFU IL23R (11737362_x_at) / Fold change /veh IL23R (11737362_x_at) / RFU TMEM51 (11727254_a_at) / Fold change /veh TMEM51 (11727254_a_at) / RFU PIWIL2 (11732686_x_at) / Fold change /veh PIWIL2 (11732686_x_at) / RFU ORM1 (11744905_x_at) / Fold change /veh ORM1 (11744905_x_at) / RFU CCDC152 (11743942_at) / Fold change /veh CCDC152 (11743942_at) / RFU ECM1 (11717891_a_at) / Fold change /veh ECM1 (11717891_a_at) / RFU IL23R (11748794_a_at) / Fold change /veh IL23R (11748794_a_at) / RFU TNFAIP8L3 (11732012_x_at) / Fold change /veh TNFAIP8L3 (11732012_x_at) / RFU MBOAT4 (11741988_at) / Fold change /veh MBOAT4 (11741988_at) / RFU 11764193_at / Fold change /veh 11764193_at / RFU TMEM53 (11763286_at) / Fold change /veh TMEM53 (11763286_at) / RFU MAGEB2 (11727129_at) / Fold change /veh MAGEB2 (11727129_at) / RFU TMEM200A (11744735_a_at) / Fold change /veh TMEM200A (11744735_a_at) / RFU CCDC152 (11751479_a_at) / Fold change /veh CCDC152 (11751479_a_at) / RFU FAM211A (11726209_a_at) / Fold change /veh FAM211A (11726209_a_at) / RFU RGS16 (11746705_a_at) / Fold change /veh RGS16 (11746705_a_at) / RFU VCAN (11755009_s_at) / Fold change /veh VCAN (11755009_s_at) / RFU RHOB (11743442_s_at) / Fold change /veh RHOB (11743442_s_at) / RFU RGS16 (11720943_a_at) / Fold change /veh RGS16 (11720943_a_at) / RFU RGS16 (11720944_at) / Fold change /veh RGS16 (11720944_at) / RFU, VPS4B / Fold change vs veh, VPS4B / RFU, CREB1 / Fold change vs veh, CREB1 / RFU, DNAJC13 / Fold change vs veh, DNAJC13 / RFU, GNAQ / Fold change vs veh, GNAQ / RFU, CDK5R1 / Fold change vs veh, CDK5R1 / RFU, ZRANB3 / Fold change vs veh, ZRANB3 / RFU, CUL4A / Fold change vs veh, CUL4A / RFU, CCNY / Fold change vs veh, CCNY / RFU, UFL1 / Fold change vs veh, UFL1 / RFU, COG3 / Fold change vs veh, COG3 / RFU, DIAPH2 / Fold change vs veh, DIAPH2 / RFU, SKA2 / Fold change vs veh, SKA2 / RFU, AFF3 / Fold change vs veh, AFF3 / RFU, LMF1 / Fold change vs veh, LMF1 / RFU, IPO11 / Fold change vs veh, IPO11 / RFU, DFFB / Fold change vs veh, DFFB / RFU, FOXP1 / Fold change vs veh, FOXP1 / RFU, CARD8 / Fold change vs veh, CARD8 / RFU, STRN3 / Fold change vs veh, STRN3 / RFU, ADK / Fold change vs veh, ADK / RFU, RASSF2 / Fold change vs veh, RASSF2 / RFU, WIPF1 / Fold change vs veh, WIPF1 / RFU, LARP1B / Fold change vs veh, LARP1B / RFU, RASA1 / Fold change vs veh, RASA1 / RFU, RB1 / Fold change vs veh, RB1 / RFU, PPFIA1 / Fold change vs veh, PPFIA1 / RFU, MAT2A / Fold change vs veh, MAT2A / RFU, CCT5 / Fold change vs veh, CCT5 / RFU, WDR92 / Fold change vs veh, WDR92 / RFU, CUX1 / Fold change vs veh, CUX1 / RFU, TTC7A / Fold change vs veh, TTC7A / RFU, TMEM135 / Fold change vs veh, TMEM135 / RFU, DEPTOR / Fold change vs veh, DEPTOR / RFU, CPM / Fold change vs veh, CPM / RFU, DNAJB6 / Fold change vs veh, DNAJB6 / RFU, CACNA2D3 / Fold change vs veh, CACNA2D3 / RFU, DTX4 / Fold change vs veh, DTX4 / RFU, TFCP2 / Fold change vs veh, TFCP2 / RFU, GMCL1 /// GMCL1P1 / Fold change vs veh, GMCL1 /// GMCL1P1 / RFU, AEBP2 / Fold change vs veh, AEBP2 / RFU, SNHG1 /// SNORD22 /// SNORD25 /// SNORD26 /// SNORD27 /// SNORD28 /// SNORD29 /// SNORD31 / Fold change vs veh, SNHG1 /// SNORD22 /// SNORD25 /// SNORD26 /// SNORD27 /// SNORD28 /// SNORD29 /// SNORD31 / Fold change (Aza/veh), C12orf56 (ProbeSet 11735607_a_at) / Fold change (ACY-1035/veh), C12orf56 (ProbeSet 11735607_a_at) / Fold change (Aza/veh), FGFR1OP (ProbeSet 11751329_s_at) / Fold change (ACY-1035/veh), FGFR1OP (ProbeSet 11751329_s_at) / Fold change (Aza/veh), VPS36 (ProbeSet 11739960_a_at) / Fold change (ACY-1035/veh), VPS36 (ProbeSet 11739960_a_at) / RFU SYPL1 (11715823_x_at) / Fold change /veh SYPL1 (11715823_x_at) / RFU IGFBP7 (11715501_s_at) / Fold change /veh IGFBP7 (11715501_s_at) / RFU REEP3 (11722064_at) / Fold change /veh REEP3 (11722064_at) / RFU IGLL1 (11728026_x_at) / Fold change /veh IGLL1 (11728026_x_at): dose or concentration left out as unconfirmed
Settings: ProbeSet 11721969_s_at; LIST B

Nc1ccc(-c2cccs2)cc1NC(=O)c1ccc2c(c1)cc(C1CC1)n2CCN1CCOCC1 [ACY-1035]
Fold change vs veh, BDP1: 0.84
